Results published in USRE39197E1, “Cell adhesion-inhibiting antiinflammatory and immune-suppressive compounds” (Abbott Laboratories, priority 1998, dated 2006).
Values belong to the compound of their own block, whether it stands above or below them.

Tests used:
[1] = tested on: adherence of JY-8 cells (expressing LFA-1) to immobilized ICAM-1; test: ICAM-1/JY-8 Cell Adhesion Assay; assay type: cell-based, human
Experimental: ICAM-1/JT-8 Cell Adhesion Assay
For measurment measurement of inhibotory inhibitory activity in the cell-based adhesion assay, 96-well microtiter plates are were coated with 70 μL of recombinat recombinant ICAM-1/Ig (ICOS Corporation) at a concentration of 5 μg/mL in D-PBS w/o without Ca^++ or Mg++ or Mg^++ overnight at 4° C. The wells are were then washed twice with D-PBS and blocked by addition of 200 μL of D-PBS, 5% fish skin gelatin by incubation for 1 hour at room temperature. […] The percent inhibition of a candidate compound at a given concentration is was calculated using the following equation: [formula] and these concentration/inhibition data are were used to generate does response curves, from which IC50 values are were derived.

[2] = target: T1, interaction between the integrin LFA-1 and its adhesion partner ICAM-1 (Homo sapiens, UniProt P20701); test: ICAM-1/LFA-1 Biochemical Interaction Assay; assay type: binding; conditions: 4 μM compound; recombinant LFA-1, biotinylated ICAM-1/Ig
T1 construct: Recombinant LFA-1 (100 μL of 0.7 μg/ml mL, ICOS Corporation) in D-PBS; purchased ICOS Corporation
T1 sequence (P20701 26-1170): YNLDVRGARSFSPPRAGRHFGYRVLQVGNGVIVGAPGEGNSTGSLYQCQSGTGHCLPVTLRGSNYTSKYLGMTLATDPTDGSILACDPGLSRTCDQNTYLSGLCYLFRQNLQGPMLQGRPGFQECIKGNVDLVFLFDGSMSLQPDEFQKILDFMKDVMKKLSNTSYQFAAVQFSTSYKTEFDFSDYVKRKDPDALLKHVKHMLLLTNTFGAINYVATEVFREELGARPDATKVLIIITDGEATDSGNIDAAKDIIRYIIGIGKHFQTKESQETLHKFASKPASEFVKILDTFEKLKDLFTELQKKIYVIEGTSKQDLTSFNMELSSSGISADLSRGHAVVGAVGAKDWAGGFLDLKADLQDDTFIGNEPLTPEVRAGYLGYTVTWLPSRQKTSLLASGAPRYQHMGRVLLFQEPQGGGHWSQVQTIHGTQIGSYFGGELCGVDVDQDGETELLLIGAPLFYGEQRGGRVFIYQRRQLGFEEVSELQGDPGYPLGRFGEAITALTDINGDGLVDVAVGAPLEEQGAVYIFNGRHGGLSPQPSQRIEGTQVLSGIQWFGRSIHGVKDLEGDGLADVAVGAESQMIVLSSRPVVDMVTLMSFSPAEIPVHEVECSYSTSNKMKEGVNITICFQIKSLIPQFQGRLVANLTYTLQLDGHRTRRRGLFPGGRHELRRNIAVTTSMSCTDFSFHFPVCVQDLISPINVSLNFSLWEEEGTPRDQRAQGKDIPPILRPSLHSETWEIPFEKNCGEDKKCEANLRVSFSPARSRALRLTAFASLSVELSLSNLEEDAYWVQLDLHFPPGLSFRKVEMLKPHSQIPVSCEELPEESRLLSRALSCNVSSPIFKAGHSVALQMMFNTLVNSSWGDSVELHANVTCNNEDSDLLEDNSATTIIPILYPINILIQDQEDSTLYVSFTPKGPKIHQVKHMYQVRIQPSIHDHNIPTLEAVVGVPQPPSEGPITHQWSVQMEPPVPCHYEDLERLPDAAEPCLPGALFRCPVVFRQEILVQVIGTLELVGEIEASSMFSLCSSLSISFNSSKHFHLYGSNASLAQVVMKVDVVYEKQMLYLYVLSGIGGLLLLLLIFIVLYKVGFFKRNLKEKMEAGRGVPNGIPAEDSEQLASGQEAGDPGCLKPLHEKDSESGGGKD
T1 sequence (P05107 23-769 partner): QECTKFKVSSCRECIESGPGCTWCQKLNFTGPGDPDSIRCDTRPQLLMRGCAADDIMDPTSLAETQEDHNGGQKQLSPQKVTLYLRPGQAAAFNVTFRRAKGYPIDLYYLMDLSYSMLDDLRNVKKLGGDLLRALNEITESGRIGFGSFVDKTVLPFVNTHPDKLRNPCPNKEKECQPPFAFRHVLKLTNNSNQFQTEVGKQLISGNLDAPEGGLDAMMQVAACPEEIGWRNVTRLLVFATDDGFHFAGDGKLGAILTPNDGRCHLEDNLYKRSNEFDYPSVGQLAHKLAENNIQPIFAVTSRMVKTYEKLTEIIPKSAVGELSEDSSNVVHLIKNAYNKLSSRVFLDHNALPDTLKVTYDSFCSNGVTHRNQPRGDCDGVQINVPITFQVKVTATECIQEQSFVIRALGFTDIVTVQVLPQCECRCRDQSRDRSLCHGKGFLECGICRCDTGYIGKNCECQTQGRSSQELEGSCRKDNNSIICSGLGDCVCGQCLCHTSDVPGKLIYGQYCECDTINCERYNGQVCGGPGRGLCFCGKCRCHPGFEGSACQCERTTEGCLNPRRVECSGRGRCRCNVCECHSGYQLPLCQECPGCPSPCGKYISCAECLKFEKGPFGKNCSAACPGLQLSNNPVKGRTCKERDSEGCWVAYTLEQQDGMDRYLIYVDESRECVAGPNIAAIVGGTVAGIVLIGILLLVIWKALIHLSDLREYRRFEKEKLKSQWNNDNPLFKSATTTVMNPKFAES
Experimental: Compounds that antagonize the interaction between ICAM-1 and LFA-1 can be identified, and their activities quantitated, using both biochemical and cell-based adhesion assays. A primary biochemical assay measures the ability of the compound in question to block the interaction between the integrin LFA-1 and its adhesion partner ICAM-1, as described below:
ICAM-1/LFA-1 Biochemical Interaction Assay
In the biochemical assay, 100 μL of anti-LFA-1 antibody (ICOS Corporation) at a concentration of 5 μg/ml mL in Dulbecco's phosphate-buffered saaline (D-PBS) is used to coat wells of a 96-well microtiter plate overnight at 4° C. The wells are were then washed twice with wash buffer (D-PBS w/o Ca^++ or Mg^++, 0.05% Tween 20) and blocked by addition of 200 μL of D-PBS, 5% fish skin gelatin. Recombinant LFA-1 (100 μL of 0.7 μg/ml mL, ICOS Corporation) in D-PBS is was then added to each well. Incubation continues continued for 1 hour at room temperature and the wells are were washed twice with wash buffer. Serial dilutions of compounds being assayed as ICAM-1/LFA-1 antagonists, were prepared as 10 mM stock solutions in dimethyl sulfoxide (DMSO), are were diluted in D-PBS, 2 mM MgCl2, 1% fish skin gelatin and 50 μL of each dilution was added to duplicate wells. This is was followed by the addition of 50 μL of 0.8 μg/ml mL biotinylated recombinant ICAM-1/Ig (ICOS Corporation) to the wells and the plates are were incubated at room temperature for 1 hour. The wells are were then washed twice with wash buffer and 100 μL of Europium-labeled Streptavidin (Wallac Oy) diluted 1:100 in Delfia assay buffer (Wallac Oy), are was then added to the wells. Incubation proceeds proceeded for 1 hour at room temperature. The wells are were washed eight times with wash buffer and 100 μL of enhancement solution (Wallac Oy, cat. No. 1244-105) are was added to each well. Incubation proceeds proceeded for 5 minutes with constant mixing. Time-resolved fluorimetry measurements are were made using the a Victor 1420 Multilabel Counter (Wallac Oy) and the percent inhibition of each candidate compound is was calculated using the following equation: [formula] where “background” refers to wells that are were not coated with anti-LFA-1 antibody.

[3] = tested on: adhesion of JY-8 cells (expressing LFA-1) to immobilized ICAM-3; test: ICAM-3/JY-8 Cell Adhesion Assay; assay type: cell-based, human; conditions: 0.6 μM compound, JY-8 cells on immobilized ICAM-3/Ig
Experimental: As such, it is expected that these compounds should block the interaction of LFA-1 with other CAM's. […] Compounds of the present invention may be evaluated for their ability to block the adhesion of JY-8 cells (a human EBV-transformed B cell line expressing LFA-1 on its surface) to immobilized ICAM-3, as follows:
ICAM-3/JY-8 Cell Adhesion Assay
For measurement of inhibitory activity in the cell-based adhesion assay, 96-well microtiter plates are were coated with 50 μL of recombinant ICAM-3/Ig (ICOS Corporation) at a concentration of 10 μg/mL in D-PBS w/o without Ca^++ or Mg^++ overnight at 4° C. The wells are were then washed twice with D-PBS, blocked by addition of 100 μL of D-PBS, 1% bovine serum albumin (BSA) by incubation for 1 hour at room temperature, and washed once with RPMI-1640/5% heat-inactivated fetal bovine serum (adhesion buffer). Dilutions of compounds to be assayed for ICAM-3/LFA-1 antagonistic activity are were prepared in adhesion buffer from 10 mM stock solutions in DMSO and 100 μL are were added to duplicate wells. JY-8 cells (a human EBV-transformed B cell line expressing LFA-1 on its surface; 100 μL at 0.75×10^6 cells/ml mL in adhesion buffer) are were then added to the wells. Microtiter plates are were incubated for 30 minutes at room temperature; the adherent cells are were then fixed with 50 μL of 14% glutaraldehyde/D-PBS and were incubated for an additional 90 minutes. The wells are were washed gently with dH2O; 50 μL of dH2O is was added, following followed by 50 μL of 1% crystal violet. After 5 minutes the plates are were washed 3× times with dH2O; 75 μL of dH2O and 225 μL of 95% EtOH are were added to each well to extract the crystal violet from the cells. Absorbance is was measured at […] in an ELISA plate reader. The percent inhibition of a candidate compound is was calculated using the following equation. [formula]

[4] = Homo sapiens, JY-8, JY-8 cells on immobilized ICAM-1/Ig
[5] = JY-8 cells on immobilized ICAM-1/Ig

IC50 [1, 4]: 10 nM
Compound: CC(=O)N1CCN(C(=O)/C=C/c2ccc(Sc3ccccc3C(C)C)c([N+](=O)[O-])c2)CC1 [Example 50, (2-iso-Propylphenyl)[2-nitro-4-(E-((4-acetylpiperazin-1-yl)carbonyl)ethenyl)phenyl]sulfide]
inhibition at 0.6 µM ([3]; Homo sapiens): 100%

IC50 [1, 4]: 690 nM
inhibition at 4 µM [2]: 84%
Compound: CC(=O)N1CCN(C(=O)/C=C/c2ccc(Sc3ccccc3C(C)(C)C)c([N+](=O)[O-])c2)CC1 [Example 51, (2-tert-Butylphenyl)[2-nitro-4-(E-((4-acetylpiperazin-1-yl)carbonyl)ethenyl)phenyl]sulfide]

IC50 [1, 5]: 360 nM
Compound: O=C(/C=C/c1ccc(Sc2ccccc2CN2CCN(Cc3ccc4c(c3)OCO4)CC2)c(Cl)c1)N1CCOCC1 [Example 54, (2-(4-(1,3-Benzodioxolyl-5-methyl)piperazin-1-ylmethyl)phenyl)[2-chloro-4-(E-((1-morpholinyl)carbonyl)ethenyl)phenyl]sulfide]
% inhibition @ 0.6 μM [3]: 100%

IC50 [1, 5]: 100 nM
% inhibition @ 4 μM [2]: 82%
Compound: CC(C)NC(=O)CN1CCN(Cc2ccccc2Sc2ccc(/C=C/C(=O)N3CCOCC3)cc2Cl)CC1 [Example 55, (2-(4-(iso-Propylaminocarbonylmethyl)piperazin-1-ylmethyl)phenyl)[2-chloro-4-(E-((1-morpholinyl)carbonyl)ethenyl)phenyl]sulfide]

IC50 [1, 5]: 510 nM
% inhibition @ 4 μM [2]: 83%
Compound: CCOC(=O)CN(C)Cc1ccccc1Sc1ccc(/C=C/C(=O)N2CCOCC2)cc1Cl [Example 56, (2-((N-Ethoxycarbonylmethyl-N-methyl)aminomethyl)phenyl)[2-chloro-4-(E-((1-morpholinyl)carbonyl)ethenyl)phenyl]sulfide]

IC50 [1, 5]: 220 nM
% inhibition @ 4 μM [2]: 90%
Compound: O=Cc1ccccc1Sc1ccc(/C=C/C(=O)N2CCOCC2)cc1Cl [Example 57, (2-Formylphenyl)[2-chloro-4-(E-((1-morpholinyl)carbonyl)ethenyl)phenyl]sulfide]

IC50 [1, 5]: 200 nM
Compound: O=C(/C=C/c1ccc(Sc2ccccc2/C=C/C(=O)N2CCOCC2)c(Cl)c1)N1CCOCC1 [Example 59, (2-(E-((1-Morpholinyl)carbonyl)ethenyl)phenyl)[2-chloro-4-(E-((1-morpholinyl)carbonyl)ethenyl)phenyl]sulfide]
% inhibition @ 0.6 μM [3]: 100%

IC50 [1, 5]: 540 nM
% inhibition @ 4 μM [2]: 88%
Compound: CN(C)N=Cc1ccccc1Sc1ccc(/C=C/C(=O)N2CCOCC2)cc1Cl [Example 61, (2-Formylphenyl)[2-chloro-4-(E-((1-morpholinyl)carbonyl)ethenyl)phenyl]sulfide, N,N-dimethyl hydrazone]

IC50 [1, 5]: 340 nM
Compound: O=C(/C=C/c1ccc(Sc2ccccc2NCCCN2CCOCC2)c(Cl)c1)N1CCOCC1 [Example 62, (2-((3-(1-Morpholinyl)propyl)-1-amino)phenyl)[2-chloro-4-(E-((1-morpholinyl)carbonyl)ethenyl)phenyl]sulfide]
% inhibition @ 0.6 μM [3]: 100%

IC50 [1, 4]: 850 nM
inhibition at 4 µM [2]: 82%
Compound: O=C(/C=C/c1ccc(Sc2ccc(Cl)cc2Cl)c(Br)c1)NCCCN1CCCC1=O [Example 63, (2,4-Dichlorophenyl)[2-bromo-4-(E-((3-(2-oxopyrrolidin-1-yl)propylamino)carbonyl)ethenyl)phenyl]sulfide]

IC50 [1, 4]: 1200 nM
inhibition at 4 µM [2]: 86%
Compound: CC(=O)N1CCN(C(=O)/C=C/c2ccc(Sc3c(Cl)cccc3C=O)c(Cl)c2)CC1 [Example 65, (2-Chloro-6-formylphenyl)[2-chloro-4-(E-((4-acetylpiperazin-1-yl)carbonyl)ethenyl)phenyl]sulfide]

The remaining lines, values behind:

Compound: O=C(C(=O)N1CCN(C(=O)/C=C/c2ccc(Sc3ccc(Cl)cc3Cl)c([N+](=O)[O-])c2)CC1)c1ccco1 [Example 38, (2,4-Dichlorophenyl)[2-nitro-4-(E-((4-(2-furoylcarbonyl)piperazin-1-yl)carbonyl)ethenyl)phenyl]sulfide]
IC50 [1, 4]: 250 nM
inhibition at 4 µM [2]: 91%

Compound: CS(=O)(=O)N1CCN(C(=O)/C=C/c2ccc(Sc3ccc(Cl)cc3Cl)c([N+](=O)[O-])c2)CC1 [Example 39, (2,4-Dichlorophenyl)[2-nitro-4-(E-((4-(methanesulfonyl)piperazin-1-yl)carbonyl)ethenyl)phenyl]sulfide]
IC50 [1, 4]: 250 nM
inhibition at 4 µM [2]: 86%

Compound: CCN(CC)C(=O)CN1CCN(C(=O)/C=C/c2ccc(Sc3ccc(Cl)cc3Cl)c([N+](=O)[O-])c2)CC1 [Example 40, (2,4-Dichlorophenyl)[2-nitro-4-(E-((4-(diethylaminocarbonylmethyl)piperazin-1-yl)carbonyl)ethenyl)phenyl]sulfide]
IC50 [1, 4]: 280 nM
inhibition at 4 µM [2]: 90%

Compound: CC(C)(C)OC(=O)CN1CCN(C(=O)/C=C/c2ccc(Sc3ccc(Cl)cc3Cl)c([N+](=O)[O-])c2)CC1 [Example 42, (2,4-Dichlorophenyl)[2-nitro-4-(E-((4-(tert-butoxycarbonylmethyl)piperazin-1-yl)carbonyl)ethenyl)phenyl]sulfide]
IC50 [1, 4]: 520 nM
inhibition at 4 µM [2]: 56%

Compound: O=C(O)C(=O)N1CCN(C(=O)/C=C/c2ccc(Sc3ccc(Cl)cc3Cl)c([N+](=O)[O-])c2)CC1 [Example 43, (2,4-Dichlorophenyl)[2-nitro-4-(E-((4-(carboxycarbonyl)piperazin-1-yl)carbonyl)ethenyl)phenyl]sulfide]
IC50 [1, 4]: 100 nM
inhibition at 4 µM [2]: 82%

Compound: O=C(O)CN1CCN(C(=O)/C=C/c2ccc(Sc3ccc(Cl)cc3Cl)c([N+](=O)[O-])c2)CC1 [Example 44, (2,4-Dichlorophenyl)[2-nitro-4-(E-((4-(carboxymethyl)piperazin-1-yl)carbonyl)ethenyl)phenyl]sulfide]
IC50 [1, 4]: 70 nM
inhibition at 4 µM [2]: 78%

Compound: CC(=O)N1CCN(C(=O)/C=C/c2ccc(Sc3ccccc3N)c([N+](=O)[O-])c2)CC1 [Example 47, (2-Aminophenyl)[2-nitro-4-(E-((4-acetylpiperazin-1-yl)carbonyl)ethenyl)phenyl]sulfide]
IC50 [1, 4]: 370 nM
inhibition at 4 µM [2]: 82%

Compound: CC(=O)N1CCN(C(=O)/C=C/c2ccc(Sc3ccccc3CO)c([N+](=O)[O-])c2)CC1 [Example 48, (2-Hydroxymethylphenyl)[2-nitro-4-(E-((4-acetylpiperazin-1-yl)carbonyl)ethenyl)phenyl]sulfide]
IC50 [1, 4]: 200 nM
inhibition at 4 µM [2]: 89%

Compound: (2-Chlorophenyl)[2-chloro-4-(E-((4-acetylpiperazin-1-yl)carbonyl))2-propenyl)phenyl]sulfide [Example 52]
IC50 [1, 5]: 420 nM
% inhibition @ 4 μM [2]: 86%
